Holding throughout (format): ADME, organism-based
Series [1] can be described thus: Ratio of unbound fraction in CD1 mouse brain to plasma at 25 mg/kg, po after 6 hrs by LC-MS/MS analysis. As to conditions: read-out: K(p,uu,brain).
The nature of series [2]: Ratio of unbound fraction in CD1 mouse brain to plasma at 50 mg/kg, po after 6 hrs by LC-MS/MS analysis. Conditions: read-out: K(p,uu,brain).
Series [3] is described as follows: AUC in CD1 mouse at 25 mg/kg, po. Conditions: in vivo.
Series [4] relates to Brain. The series can be described thus: Unbound fraction in CD1 mouse brain at 25 mg/kg, po administered as single dose measured at 1 hr post dose by LC-MS/MS analysis. Conditions: in vivo.
Series [5] has as its system Brain. The series can be described thus: Unbound fraction in CD1 mouse brain at 25 mg/kg, po administered as single dose measured at 6 hrs post dose by LC-MS/MS analysis. As to conditions: in vivo.

On to `COC(C)(C)c1cc2nc(-c3cnc(N)nc3)nc(N3CCOCC3)c2s1`, for which, in series [1], the Kp uu at 6 h was 0.4. `COC1(c2sc3c(N4CCOCC4)nc(-c4cnc(N)nc4)nc3c2C)COC1`: the Kp uu at 6 h in series [2] came to 0.4.

The term AUC denotes concentration integrated over time. A lower AUC goes with less exposure. On to `CC1(C)OCCn2c1nc1c(N3CCOCC3)nc(-c3cnc(N)nc3)nc12` [PAXALISIB], for which the AUC in series [3] was 47 µM·h. Also, the “Drug uptake(free)” value in the series with Brain [4] was 0.32 µM; in the series with Brain [5], 0.16 µM.

Values taken from ChEMBL document CHEMBL3813614 (ACS Med Chem Lett, 2016).
